The values below come from US20230219965A1 (KSQ Therapeutics, Inc., priority 2020, published 2023).

Where two headings read alike, the source gives them in different places.

Data set [1] in a line: Liver microsomal metabolic stability, rat liver microsomes (RLM). The following applies: rat, liver microsomes, t1/2 (min) in RLM, 1 μM compound, 1 mg/mL microsomes, NADPH.
Description: Samples were prepared by adding 222.5 μL of a master solution (100 mM phosphate buffer and 1 mg/mL liver microsomes (HLM or RLM)) and 25 μL of a 10 mM NADPH solution to incubation plates, which were then warmed for 10 min. Each compound was separately dissolved in DMSO to prepare 10 mM stock solutions, which were then diluted to 100 μM with acetonitrile. A reaction was started by adding 2.5 μL of the 100 μM solution of each compound to separate incubation plates such that the final concentration of for each compound in each plate was 1 μM.
25 μL aliquots of each sample were taken at 0.5, 5, 10, 15, 20 and 30 minutes, and the reaction was stopped by adding 5 volumes of cold acetonitrile with IS (100 nM alprazolam, 200 nM caffeine and 100 nM tolbutamide). The samples were then centrifuged at 3,220 G for 30 minutes, and 100 μL of the supernatant fluid was mixed with 100 μL of ultra-pure H2O.
The samples were then analyzed by LC-MS/MS. Peak areas were determined from extracted ion chromatograms. Slope values (k) were determined by linear regression of the natural logarithm of the remaining percentage of the compound vs. incubation time curve. The in vitro half-life (in vitro t1/2) was determined from the slope value using the following equation:
The next data set deals with USP1/UAF1 enzyme (Homo sapiens, UniProt O94782). As to the kind of experiment: USP1/UAF1 deubiquitination assay (ubiquitin-rhodamine 110 substrate). The format is biochemical. Conditions: read-out: USP1 IC50 (Ub-Rho). In a few lines:
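0.05 nM USP1/UAF1 was preincubated 10 min with compounds (dose response from 10 μM) in 50 mM Tris-HCl pH 7.8, 0.5 mM EDTA, 0.01% BSA, 1 mM DTT, 0.01% Tween-20. 150 nM ubiquitin-rhodamine 110 started the reaction, read kinetically 30 min at Ex480/Em540; IC50 by four-parameter fit versus no-enzyme and DMSO controls.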

The nature of data set [2]: ADME solubility determination in PBS at pH 2.0 and pH 7.4. In kind it is physicochemical. Conditions: phosphate buffered saline, 25 °C, thermodynamic from solid. The method, boiled down: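 Dried 10 mM DMSO stock residues taken up in PBS pH 7.4 or pH 2.0, shaken 24 h at 25° C. After centrifugation, supernatant quantified by LC-MS/MS against a standard of known concentration, with a dilution factor applied.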

Data set [3] relates to Ub-PCNA levels in the nucleus of ES2 cells (USP1 activity). As to the kind of experiment: ES2 Ub-PCNA immunofluorescence (IF) assay. The format is cell-based. The following applies: Homo sapiens, ES-2; ES2 cells, 3 hours, Ub-PCNA immunofluorescence; read-out: USP1 IC50 (Ub-PCNA). The method, boiled down:
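Cells plated overnight, then compound-treated for 3 h at 37° C (0.3% DMSO final), methanol-fixed and stained with anti-Ub-PCNA plus DAPI. Per-nucleus Ub-PCNA intensity imaged; cells above the 95% cutoff of untreated wells counted as positive, and percent positive cells used to derive AC50.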

A short description of data set [4]: Liver microsomal metabolic stability, human liver microsomes (HLM). The following applies: human, liver microsomes.
Setting [5] is: pH 2, aqueous buffer, PBS pH 2.0, 25° C., read-out: Solubility at pH 2.0.
Where [6] appears, read: pH 7.4, aqueous buffer, PBS pH 7.4, 25° C., read-out: Solubility at pH 7.4.

Chain of USP1/UAF1 enzyme (O94782 whole entry): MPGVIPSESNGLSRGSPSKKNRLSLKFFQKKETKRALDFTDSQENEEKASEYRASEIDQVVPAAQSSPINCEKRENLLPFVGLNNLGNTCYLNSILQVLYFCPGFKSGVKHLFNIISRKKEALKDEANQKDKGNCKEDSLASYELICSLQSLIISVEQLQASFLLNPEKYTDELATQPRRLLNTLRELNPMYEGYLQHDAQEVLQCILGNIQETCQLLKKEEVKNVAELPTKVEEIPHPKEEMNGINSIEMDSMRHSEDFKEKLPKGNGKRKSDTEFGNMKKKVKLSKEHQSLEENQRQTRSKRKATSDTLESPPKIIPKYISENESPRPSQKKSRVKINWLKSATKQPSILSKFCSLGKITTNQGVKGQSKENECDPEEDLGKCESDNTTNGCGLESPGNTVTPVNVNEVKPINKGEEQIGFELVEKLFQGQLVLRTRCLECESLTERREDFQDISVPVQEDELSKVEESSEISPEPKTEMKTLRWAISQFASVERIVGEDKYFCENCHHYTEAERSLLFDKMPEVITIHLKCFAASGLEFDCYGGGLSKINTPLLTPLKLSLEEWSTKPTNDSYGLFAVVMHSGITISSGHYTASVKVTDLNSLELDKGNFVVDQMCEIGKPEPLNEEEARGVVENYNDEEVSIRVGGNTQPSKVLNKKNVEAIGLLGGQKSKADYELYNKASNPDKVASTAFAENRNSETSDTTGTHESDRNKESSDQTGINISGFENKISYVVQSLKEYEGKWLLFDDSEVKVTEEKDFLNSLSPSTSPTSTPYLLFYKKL
Chain of USP1/UAF1 enzyme (Q8TAF3 whole entry partner): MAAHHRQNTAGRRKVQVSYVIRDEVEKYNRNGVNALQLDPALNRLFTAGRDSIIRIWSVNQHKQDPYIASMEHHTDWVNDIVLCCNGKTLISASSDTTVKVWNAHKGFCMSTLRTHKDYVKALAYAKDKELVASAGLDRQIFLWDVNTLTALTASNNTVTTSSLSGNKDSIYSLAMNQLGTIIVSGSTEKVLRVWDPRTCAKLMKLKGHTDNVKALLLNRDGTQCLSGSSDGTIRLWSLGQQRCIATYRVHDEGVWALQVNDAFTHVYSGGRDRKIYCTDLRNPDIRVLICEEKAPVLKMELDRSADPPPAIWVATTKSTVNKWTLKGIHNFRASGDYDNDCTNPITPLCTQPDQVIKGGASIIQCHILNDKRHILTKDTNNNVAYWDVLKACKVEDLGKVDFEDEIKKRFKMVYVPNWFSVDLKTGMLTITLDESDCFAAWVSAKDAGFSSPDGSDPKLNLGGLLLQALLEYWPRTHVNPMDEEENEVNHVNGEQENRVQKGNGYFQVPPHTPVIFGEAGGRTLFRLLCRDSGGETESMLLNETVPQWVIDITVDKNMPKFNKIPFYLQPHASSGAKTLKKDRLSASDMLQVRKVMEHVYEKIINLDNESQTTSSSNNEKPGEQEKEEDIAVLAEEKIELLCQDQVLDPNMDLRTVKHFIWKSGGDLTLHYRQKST

For `CCn1cc(C(F)(F)F)nc1-c1ccc(NC2CCCc3nn(-c4ccccc4C(C)C)cc32)cc1F` (stereo not drawn) [Example 355, N-(4-(1-ethyl-4-(trifluoromethyl)-1H-imidazol-2-yl)-3-fluorophenyl)-2-(2-isopropylphenyl)-4,5,6,7-tetrahydro-2H-indazol-4-amine], the half-life at 1 μM in data set [1] and in data set [4] was less than 25 min each time. For the same compound, the IC50 on USP1/UAF1 enzyme is less than 100 nM; in data set [3] it was 100 to 500 nM. In addition, the solubility at 24 h in data set [2] (setting [5]) and in data set [2] (setting [6]) was less than 10 µM in each case.
Turning to `CCn1cc(C(F)(F)F)nc1-c1ccc(NC2CCCCn3nc(-c4c(Cl)cnn4C(C)C)cc32)cc1` (stereo not drawn) [Example 357, 2-(4-chloro-1-isopropyl-1H-pyrazol-5-yl)-N-(4-(1-ethyl-4-(trifluoromethyl)-1H-imidazol-2-yl)phenyl)-5,6,7,8-tetrahydro-4H-pyrazolo[1,5-α]azepin-4-amine], the half-life at 1 μM in data set [1] and in data set [4] was less than 25 min throughout. In addition, the half-inhibitory concentration (IC50) (on USP1/UAF1 enzyme; in data set [3]) was less than 100 nM in each case. Moreover, the solubility at 24 h in data set [2] (setting [5]) and in data set [2] (setting [6]) was less than 10 µM each time.
Turning to `CCn1cc(C(F)(F)F)nc1-c1ccc(OC2CCCCn3nc(-c4c(Cl)cnn4C(C)C)cc32)cc1` (stereo not drawn) [Example 358, 2-(4-chloro-1-isopropyl-1H-pyrazol-5-yl)-4-(4-(1-ethyl-4-(trifluoromethyl)-1H-imidazol-2-yl)phenoxy)-5,6,7,8-tetrahydro-4H-pyrazolo[1,5-α]azepine], the figures for the half-life at 1 μM in data set [1] and in data set [4] were less than 25 min and more than 25 min, respectively. The IC50 (at USP1/UAF1 enzyme; in data set [3]) was less than 100 nM each time. The solubility at 24 h in data set [2] (setting [5]) and in data set [2] (setting [6]) was less than 10 µM throughout.
On to `CCn1cc(C(F)(F)F)nc1-c1ccc(CC2c3cc(-c4c(Cl)cnn4C(C)C)nn3CCN2C)cc1` (stereo not drawn) [Example 360, 2-(4-chloro-1-isopropyl-1H-pyrazol-5-yl)-4-(4-(1-ethyl-4-(trifluoromethyl)-1H-imidazol-2-yl)benzyl)-5-methyl-4,5,6,7-tetrahydropyrazolo[1,5-α]pyrazine], for which the half-life at 1 μM in data set [1] and in data set [4] was less than 25 min each time. The IC50 (on USP1/UAF1 enzyme; in data set [3]) was less than 100 nM each time. Besides, the solubility at 24 h in data set [2] (setting [5]) is not below 10 µM; in data set [2] (setting [6]) it was less than 10 µM.
As to `CCn1cc(C(F)(F)F)nc1-c1ccc(CC2c3cc(-c4c(OC)ncnc4C4CC4)nn3CCN2C)cc1` (stereo not drawn) [Example 362, 2-(4-cyclopropyl-6-methoxypyrimidin-5-yl)-4-(4-(1-ethyl-4-(trifluoromethyl)-1H-imidazol-2-yl)benzyl)-5-methyl-4,5,6,7-tetrahydropyrazolo[1,5-a]pyrazine], the half-life at 1 μM in data set [1] and in data set [4] was less than 25 min throughout. Besides, the IC50 is less than 100 nM on USP1/UAF1 enzyme and 100 to 500 nM in data set [3]. Also, the solubility at 24 h in data set [2] (setting [5]) and in data set [2] (setting [6]) was not below 10 µM in each case.
As for `CCn1cc(C(F)(F)F)nc1-c1ccc(CN2C(=O)CCn3nc(-c4c(OC(F)F)ncnc4C4CC4)nc32)cc1` [Example 364, 2-(4-cyclopropyl-6-(difluoromethoxy)pyrimidin-5-yl)-4-(4-(1-ethyl-4-(trifluoromethyl)-1H-imidazol-2-yl)benzyl)-6,7-dihydro-[1,2,4]triazolo[1,5-α]pyrimidin-5(4H)-one], the half-life at 1 μM in data set [1] and in data set [4] was more than 25 min each time. For the same compound, the IC50 (at USP1/UAF1 enzyme; in data set [3]) was less than 100 nM in each case. Moreover, the solubility at 24 h in data set [2] (setting [5]) and in data set [2] (setting [6]) was less than 10 µM in each case.
Take `COc1c(CN2C(=O)CCn3nc(-c4c(OC(F)F)ncnc4C4CC4)nc32)ccc(-c2nc(C(F)(F)F)cn2C(C)C)c1F` [Example 365, 2-(4-cyclopropyl-6-(difluoromethoxy)pyrimidin-5-yl)-4-(3-fluoro-4-(1-isopropyl-4-(trifluoromethyl)-1H-imidazol-2-yl)-2-methoxybenzyl)-6,7-dihydro-[1,2,4]triazolo[1,5-a]pyrimidin-5(4H)-one]: the half-life at 1 μM in data set [1] and in data set [4] was more than 25 min in each case. Also, the half-inhibitory concentration (IC50) (at USP1/UAF1 enzyme; in data set [3]) was less than 100 nM each time. Further, the solubility at 24 h in data set [2] (setting [5]) and in data set [2] (setting [6]) was less than 10 µM each time.
Regarding `CCn1cc(C(F)(F)F)nc1-c1ccc(CN2C(=O)CCn3nc(-c4c(OC(F)F)ncnc4C4CC4)nc32)cc1F` [Example 370, 2-(4-cyclopropyl-6-(difluoromethoxy)pyrimidin-5-yl)-4-(4-(1-ethyl-4-(trifluoromethyl)-1H-imidazol-2-yl)-3-fluorobenzyl)-6,7-dihydro-[1,2,4]triazolo[1,5-a]pyrimidin-5(4H)-one], the half-life at 1 μM in data set [1] and in data set [4] was more than 25 min throughout. The IC50 (at USP1/UAF1 enzyme; in data set [3]) was less than 100 nM in each case. The solubility at 24 h in data set [2] (setting [5]) and in data set [2] (setting [6]) was less than 10 µM in each case.
Regarding `CC(C)n1cc(C(F)(F)F)nc1-c1ccc(C(N2CCCn3nc(-c4c(Cl)cnn4C(C)C)cc32)C(F)(F)F)cc1F` (stereo not drawn) [Example 371, 2-(4-chloro-1-isopropyl-1H-pyrazol-5-yl)-4-(2,2,2-trifluoro-1-(3-fluoro-4-(1-isopropyl-4-(trifluoromethyl)-1H-imidazol-2-yl)phenyl)ethyl)-4,5,6,7-tetrahydropyrazolo[1,5-α]pyrimidine], the half-life at 1 μM in data set [1] and in data set [4] was less than 25 min each time. Further, the IC50 (at USP1/UAF1 enzyme; in data set [3]) was less than 100 nM each time. In addition, the solubility at 24 h in data set [2] (setting [5]) and in data set [2] (setting [6]) was less than 10 µM each time.
